Reference: US6767917B1, “Amorphous torasemide modification” (Pliva d.d., priority 2000, dated 2004)

Legend:
[1] = Solid-state stability of the amorphous modification (conversion into crystal modifications); type: physicochemical; conditions: normal storage conditions, at crushing and compressing
[2] = Release of the active substance in water (USP 24); type: physicochemical; conditions: for Released torasemide: water, USP 24, 37° C., 50 rpm, 1000 ml
Method: The amorphous torasemide modification as such is suitable for the preparation of pharmaceutical prepartions having short-term or prolonged actions. The amorphous torasemide modification prepared according to Example 1 of the present invention was subjected to the test of the release of the active substance in water at a temperature of 37° C. (USP 24) and the results are represented in Table 1. [table]

Stability (no conversion into crystal modification I, II or III) [1]: stable
Release profile in comparison with the known crystal torasemide modifications ([2]; in water (USP 24), same medium): slower release
Released torasemide ([2]; time 0 minutes): 0%
Released torasemide ([2]; time 15 minutes): 6.8%
Released torasemide ([2]; time 30 minutes): 10.2%
Released torasemide ([2]; time 45 minutes): 13.0%
Released torasemide ([2]; time 60 minutes): 15.9%
Released torasemide ([2]; time 90 minutes): 20.4%
Released torasemide ([2]; time 120 minutes): 24.9%
Compound: Cc1cccc(Nc2ccncc2S(=O)(=O)NC(=O)NC(C)C)c1 [amorphous torasemide modification, N-(1-methylethylaminocarbonyl)-4-(3-methyl-phenylamino)-3-pyridinesulfonamide]
